This experiment can be described thus: modulators of MEP2-GFP levels in yeast, dose response, S. cerevisiae, flow cytometry GFP, MLPCN hits (AID 2742).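 Further: GFP tag reports level of MEP2 protein as a downstream target of TOR signalling.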 The note with it: S. cerevisiae MEP2-GFP strain, flow cytometry fluorescence, 3 h; at 33 µM (top of the series). (In general: Flow cytometry measures light scatter and fluorescence of single cells or particles in a stream.)

Where “and” joins values, the source holds several entries; their conditions need not be identical. Identical values can stand only once. Calls of active or inactive are those of the source.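 How the source made its calls: active means fitted half-maximal concentration for changing background-corrected GFP signal at or below a set limit; inactive means the rest.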

The source of these data is PubChem BioAssay AID2742 (NMMLSC, 2010).

Take `CCCCC1OC23CCCCC2C(C#N)(C(=N)O3)C1(C#N)C#N` (stereo unspecified): the GFP fluorescence (kMESF), higher = increase is 3.37 kMESF (inactive).

Turning to `O=C1ON=C(c2ccccc2)/C1=C/c1ccc(-c2ccccc2[N+](=O)[O-])o1`, the GFP fluorescence (kMESF), higher = increase is 5.5 kMESF (inactive).

Turning to `CCN(CC)C(=S)SSC(=S)N(CC)CC`, the GFP fluorescence (kMESF), higher = increase was 5.19 kMESF (inactive).

For the compound `O=C(Sc1cccc2cccnc12)c1ccccc1Br`, the GFP fluorescence (kMESF), higher = increase was 4.93 kMESF (inactive).

In the case of `Cc1ccc(/C=C2\C(=O)NC(=S)N(c3ccccc3F)C2=O)s1`, the GFP fluorescence (kMESF), higher = increase is 4.49 kMESF (inactive).

As for `N/C(Cc1ccc(Cl)cc1)=N\OC(=O)c1ccccc1`, the GFP fluorescence (kMESF), higher = increase is 3.99 kMESF (inactive).

`N#C/C(=C\c1ccccn1)c1nc2ccccc2s1`: the GFP fluorescence (kMESF), higher = increase was 58.7 kMESF (inactive).

As to `Cc1ccc(C(CC(=O)O)NC(=O)c2ccc(S(=O)(=O)N3CC(C)OC(C)C3)cc2)cc1` (stereo unspecified), the GFP fluorescence (kMESF), higher = increase was 3.08 kMESF (inactive).

In the case of `CC[C@H](C)/C=C(C)/C=C/C1=CC2=C(Cl)C(=O)[C@@](C)(OC(C)=O)C(=O)C2=CO1`, the GFP fluorescence (kMESF), higher = increase is 0.91 kMESF (inactive).

`Cc1cc(=O)oc2cc(Oc3ccc([N+](=O)[O-])cc3C(F)(F)F)ccc12`: the GFP fluorescence (kMESF), higher = increase was 2.42 kMESF (inactive).

With `CCC(=O)Oc1oc(-c2ccccc2)nc1C=Nc1ccccc1OC`, the GFP fluorescence (kMESF), higher = increase is 2.69 kMESF (inactive).

Take `COc1cccc2cc(-c3nc4ccccc4o3)c(=O)oc12`: the GFP fluorescence (kMESF), higher = increase was 1.66 kMESF (inactive).

As to `O=c1c2cnn(-c3ccccc3)c2ncn1Cc1ccco1`, the GFP fluorescence (kMESF), higher = increase was 1.97 kMESF (inactive).

On to `O=[N+]([O-])c1ccc(N=Nc2c(Cl)cc(O)cc2Cl)cc1`, for which the GFP fluorescence (kMESF), higher = increase was 4.93 kMESF (inactive).

`ClC(Cl)(c1nnnn1-c1ccccc1)c1nnnn1-c1ccccc1`: the GFP fluorescence (kMESF), higher = increase was 4.4 kMESF (inactive).

For `CCCc1cc(NCc2ccccn2)n2nc(C)c(-c3ccccc3)c2n1`, the GFP fluorescence (kMESF), higher = increase is 2.86 kMESF (inactive).

For the compound `CC1=C(C)/C(=N\OS(=O)(=O)c2ccc(C)cc2)C=CC1=O`, the GFP fluorescence (kMESF), higher = increase is 4.38 kMESF (inactive).

Turning to `O=C(Nc1ccc(Cl)cc1Cl)c1cccc(N2C(=O)C=CC2=O)c1`, the GFP fluorescence (kMESF), higher = increase is 4.39 kMESF (inactive).

In the case of `CC(=O)Oc1ccc(N2C(=O)C3C4C=CC(CO)(O4)C3C2=O)cc1` (stereo unspecified), the GFP fluorescence (kMESF), higher = increase was 3.1 kMESF (inactive).

For the compound `CC(C)(C)n1nc(-c2ccc(Cl)cc2)c2c(N)ncnc21`, the GFP fluorescence (kMESF), higher = increase was 6.05 kMESF (inactive).

For `CS(=O)(=O)c1nc(-c2cccs2)cc(C(F)(F)F)n1`, the GFP fluorescence (kMESF), higher = increase was 6.41 kMESF (inactive).

Take `CC(Oc1ccc2ccccc2c1)C(=O)NNC(=S)NC(=O)c1ccco1` (stereo unspecified): the GFP fluorescence (kMESF), higher = increase was 4.16 kMESF (inactive).

On to `On1ccccc1=S`, for which the GFP fluorescence (kMESF), higher = increase was 3.58 kMESF (inactive).

On to `C=CCOc1ccc(C(=O)/C=C2/C(=O)Nc3ccccc32)cc1`, for which the GFP fluorescence (kMESF), higher = increase is 3.85 kMESF (inactive).

Take `O=C(Oc1oc(-c2ccco2)nc1C=Nc1ccc(Cl)cc1)c1ccco1`: the GFP fluorescence (kMESF), higher = increase was 3.6 kMESF (inactive).

For the compound `O=C(Oc1c(Cl)cc(Cl)c2cccnc12)c1cccs1`, the GFP fluorescence (kMESF), higher = increase was 3.47 kMESF (inactive).

For the compound `CC(=O)n1cc(C(C[N+](=O)[O-])SCCN)c2ccccc21` (stereo unspecified), the GFP fluorescence (kMESF), higher = increase was 3.64 kMESF (inactive).

For `O=c1[nH]c(-c2ccc(Cl)cc2)cs1`, the GFP fluorescence (kMESF), higher = increase is 1.62 kMESF (inactive).

Regarding `Cc1cccnc1Nc1nc(-c2ccccn2)cs1`, the GFP fluorescence (kMESF), higher = increase is 2.08 kMESF (inactive).

For the compound `CCOC(=O)c1c(C)oc2c1c(C(c1cccnc1)N1CCOCC1)c(O)c1ccccc12` (stereo unspecified), the GFP fluorescence (kMESF), higher = increase is 4.43 kMESF (inactive).

In the case of `CCCCc1ccc(NC(=O)CC(C)=O)cc1`, the GFP fluorescence (kMESF), higher = increase is 2.02 kMESF (inactive).

Turning to `Cc1ccc(/C=C2\SC(=S)N(CC3CCCO3)C2=O)o1` (stereo unspecified), the GFP fluorescence (kMESF), higher = increase was 4.83 kMESF (inactive).

As for `O=C(Oc1c(Cl)cc(Cl)c2cccnc12)c1cccc([N+](=O)[O-])c1`, the GFP fluorescence (kMESF), higher = increase is 4.13 kMESF (inactive).

As to `Cc1ccc(N=c2ssnc2Cl)cc1`, the GFP fluorescence (kMESF), higher = increase was 4.79 kMESF (inactive).

In the case of `COc1cc(/C=C2\C(=O)ON=C2c2ccc(Cl)cc2)ccc1O`, the GFP fluorescence (kMESF), higher = increase is 3.71 kMESF (inactive).

Consider `Cc1cccc(N=Nc2ccc(O)c3ncccc23)c1`, for which the GFP fluorescence (kMESF), higher = increase is 3.18 kMESF (inactive).

Take `O=c1cc(CSc2ccc(Cl)cc2)nc(-c2ccccn2)[nH]1`: the GFP fluorescence (kMESF), higher = increase was 3.46 kMESF (inactive).

As to `COc1ccc(/C=C/C(=O)NC(=S)NNC(=O)c2cnccn2)cc1`, the GFP fluorescence (kMESF), higher = increase was 3.67 kMESF (inactive).

Turning to `CC(C)(C)C(=O)C(Cl)C(=O)Nc1ccccc1` (stereo unspecified), the GFP fluorescence (kMESF), higher = increase was 4.12 kMESF (inactive).

As for `CCc1cc(C(=O)Nc2nc(-c3ccccn3)cs2)sc1C`, the GFP fluorescence (kMESF), higher = increase is 6.18 kMESF (inactive).

As for `O=C(Oc1oc(-c2ccco2)nc1C=Nc1ccccc1)c1ccoc1`, the GFP fluorescence (kMESF), higher = increase is 4.11 kMESF (inactive).

For `COc1ccc2c(c1)c(/C=C/c1cc[n+](C)cc1)cn2C`, the GFP fluorescence (kMESF), higher = increase is 4.56 kMESF (inactive).

For `CC(C)Cn1c(=O)c(C(=O)Nc2ccncc2)c(O)c2ccccc21`, the GFP fluorescence (kMESF), higher = increase is 3.98 kMESF (inactive).

In the case of `COc1ccc(C2=CC3=C(Br)C(=O)C(C)(O)C(=O)C3=CO2)cc1` (stereo unspecified), the GFP fluorescence (kMESF), higher = increase was -0.97 kMESF (inactive).

On to `O=C1NC(=S)NC(=O)C1=Cc1ccc2c(c1)CCN2CCCCl`, for which the GFP fluorescence (kMESF), higher = increase is 4.18 kMESF (inactive).

Regarding `CCC(=O)Nc1ccc(NC(=O)c2cc3ccccc3o2)c(OC)c1`, the GFP fluorescence (kMESF), higher = increase was 2.4 kMESF (inactive).

Take `O=C(OCC(=O)N1CCN(C(=O)c2ccco2)CC1)c1cc(-c2cccc(Br)c2)nc2ccccc12`: the GFP fluorescence (kMESF), higher = increase was 4.47 kMESF (inactive).

With `N#Cc1ccc(N=c2ssnc2Cl)cc1`, the GFP fluorescence (kMESF), higher = increase is 3.37 kMESF (inactive).

Turning to `CCOC(=O)CCS(=O)(=O)c1nc(-c2ccccc2)cc(C(F)(F)F)n1`, the GFP fluorescence (kMESF), higher = increase is 7.24 kMESF (inactive).

Regarding `Cc1cccc(OCCN2CSC(=S)N(C)C2)c1`, the GFP fluorescence (kMESF), higher = increase is 3.71 kMESF (inactive).

Regarding `COc1ccc2c(/C=C/c3cc[n+](C)cc3)c[nH]c2c1`, the GFP fluorescence (kMESF), higher = increase is 4.86 kMESF (inactive).

For `O=[N+]([O-])c1cc(O)c2ncccc2c1`, the GFP fluorescence (kMESF), higher = increase is 5.96 kMESF (inactive).

As to `O=C1c2cccc3c([N+](=O)[O-])ccc(c23)C(=O)N1O`, the GFP fluorescence (kMESF), higher = increase is 22.1 kMESF (inactive).

For `O=[N+]([O-])c1ccc(-c2cn3nc(-c4ccccc4)c(-c4ccccc4)nc3n2)cc1`, the GFP fluorescence (kMESF), higher = increase was 4.08 kMESF (inactive).

For `CCOc1ccc(NC2=C(Cl)C(=O)N(Cc3ccccc3)C2=O)cc1`, the GFP fluorescence (kMESF), higher = increase is 3.61 kMESF (inactive).

As for `O=C(NCc1ccc2c(c1)OCO2)c1nc(S(=O)(=O)Cc2ccccc2)ncc1Cl`, the GFP fluorescence (kMESF), higher = increase is 2.56 kMESF (inactive).

As to `COc1ccc(C2(C)ON(c3ccccc3C(F)(F)F)C2=O)cc1` (stereo unspecified), the GFP fluorescence (kMESF), higher = increase was 2.87 kMESF (inactive).

Consider `Cc1ccc(NN2C(=O)C=C(c3ccc(Cl)cc3)C2=O)cc1`, for which the GFP fluorescence (kMESF), higher = increase was 4.9 kMESF (inactive).

`CC(=O)OC[C@]12CC[C@H]3[C@@](C)(CC[C@H]4C(C)(C)CCC[C@]34C)[C@@H]1C[C@H](C1=CC(=O)O[C@@H]1OC(C)=O)O2`: the GFP fluorescence (kMESF), higher = increase is 1.79 kMESF (inactive).

`Cc1cc(C(=O)COC(=O)c2ccc[nH]c2=O)c(C)n1-c1ccccc1F`: the GFP fluorescence (kMESF), higher = increase is 1.88 kMESF (inactive).

In the case of `O=C(OCC(=O)N1CCN(C(=O)c2ccco2)CC1)c1cc(-c2ccccc2)nc2ccccc12`, the GFP fluorescence (kMESF), higher = increase is 3.96 kMESF (inactive) and 2.66 kMESF (inactive).

Regarding `O=[N+]([O-])c1cc(S(=O)(=O)C(F)(F)F)ccc1Sc1nc2ccccc2s1`, the GFP fluorescence (kMESF), higher = increase is 4.67 kMESF (inactive).

In the case of `COc1ccc(N=Cc2nc(-c3ccccc3)oc2OC(=O)c2ccccc2)cc1`, the GFP fluorescence (kMESF), higher = increase was 2.68 kMESF (inactive).

With `COc1ccc([C@]2(C(C)C)ON(c3ccccc3C(F)(F)F)C2=O)cc1`, the GFP fluorescence (kMESF), higher = increase was 2.67 kMESF (inactive).

On to `COc1ccccc1[C@@]1(C)ON(c2ccccc2C(F)(F)F)C1=O`, for which the GFP fluorescence (kMESF), higher = increase is 5.08 kMESF (inactive).

With `Oc1c(C(Nc2cccc(C(F)(F)F)c2)c2ccncc2)ccc2cccnc12` (stereo unspecified), the GFP fluorescence (kMESF), higher = increase is 4.71 kMESF (inactive).

Turning to `CCC(=O)Oc1oc(-c2ccccc2)nc1C=Nc1ccc(C)cc1`, the GFP fluorescence (kMESF), higher = increase was 3.2 kMESF (inactive).

As for `CC1=C/C(=N\OS(=O)(=O)c2ccccc2)C(C(C)C)=CC1=O`, the GFP fluorescence (kMESF), higher = increase is 8.38 kMESF (inactive).

As for `COc1cc(/C=C2\C(=O)ON=C2c2ccccc2)cc(Br)c1O`, the GFP fluorescence (kMESF), higher = increase was 4.31 kMESF (inactive).

On to `Oc1c(CN2CCN(c3ccccc3)CC2)cc(Br)c2cccnc12`, for which the GFP fluorescence (kMESF), higher = increase is 7.37 kMESF (inactive).

`CC(C)C[C@]1(c2ccccc2)ON(c2ccccc2C(F)(F)F)C1=O`: the GFP fluorescence (kMESF), higher = increase was 2.97 kMESF (inactive).

With `CC(Oc1cccc(Cl)c1)C(=O)Nc1nc(-c2ccccn2)cs1` (stereo unspecified), the GFP fluorescence (kMESF), higher = increase was 5.7 kMESF (inactive).

As for `CCN(CC)C(=O)Oc1ccnc2cc(Cl)ccc12`, the GFP fluorescence (kMESF), higher = increase was 11.7 kMESF (inactive).

Turning to `CCOC(=O)c1cc(-c2ccc(/C=C3/C(=O)NC(=O)C(C#N)=C3C)o2)ccc1Cl`, the GFP fluorescence (kMESF), higher = increase was 6.22 kMESF (inactive).

Take `CN(C)NC(=S)Nc1ccc(S(=O)(=O)N2CCCCC2)cc1`: the GFP fluorescence (kMESF), higher = increase was 1.92 kMESF (inactive).

For the compound `C=CCOc1ccccc1C(=O)/C=C1/C(=O)Nc2ccccc21`, the GFP fluorescence (kMESF), higher = increase was 3.91 kMESF (inactive).
